Measurements taken from patent US5274002A, “Trisubstituted phenyl analogs having activity for congestive heart failure” (Warner-Lambert Company, priority 1990, dated 1993).

Experiments:
[1] = tested on: anesthetized dog; assay: in vivo myocardial inotropic activity in the anesthetized dog; settings: 1.0 mg/kg, change from control data prior to dosing
Method: TEST FOR IN VIVO MYOCARDIAL INOTROPIC ACTIVITY IN THE ANESTHETIZED DOG
Adult mongrel dogs of either sex are anesthetized with pentobarbital, 35 mg/kg, IV, and are maintained under anesthesia with a continuous infusion of pentobarbital, 3.5 mg/kg/hr. The trachea is intubated, but the animals are permitted to breathe spontaneously. A cannula is inserted into the femoral vein for administering test agents. A Millar catheter tip pressure transducer or a fluid filled catheter is inserted into the ascending aorta via the femoral artery for measuring pressure. A Millar catheter tip pressure transducer is passed into the left ventricle via the left carotid artery for measuring left ventricular blood pressure. Needle electrodes are placed subcutaneously for recording a lead II electrocardiogram. Before administering test agents, control data is acquired over a period of at least thirty minutes.
The test agent is dissolved in dimethylacetamide. Each dose is administered in a volume of 0.5 ml over a period of one minute. Appropriate vehicle controls are also administered.
When tested by this protocol, representative compounds of formula I, when administered at a dose of 1 mg/kg, produced an increase in contractility, a minimal increase in blood pressure, and an increase in heart rate as shown in the following Table B.

[2] = tested on: isolated Langendorff rat heart; assay: isolated Langendorff rat heart (CVIH), coronary flow; settings: In Vitro Langendorf Isolated Rat Heart, constant perfusion pressure 70 mm Hg, 37° C.; for EC25: read-out: EC 25 (Coronary Flow); for EC50: read-out: EC 50 (Coronary Flow)
Method: TEST FOR INOTROPIC, CHRONOTROPIC, AND VASCULAR ACTIVITIES IN THE ISOLATED LANGENDORFF RAT HEART (CVIH)
Male rats (400-600 gms) are pretreated with 2000 units Na heparin (Parke-Davis) and anesthetized with Na pentobarbital (50 mg/kg, Butler Co.) administered intraperitoneally. Once anesthetized, the rat heart is rapidly excised, the ascending aorta fitted to the aortic perfusion cannula, and secured with a ligature. The coronary arteries were perfused initially at a rate of about 15 ml/min for two to three minutes, after which they are perfused at constant pressure of 70 mm Hg and temperature of 37° C. The electrocardiogram (ECG) is recorded using two platinum electrodes positioned at the base and apex of the left ventricle. A second heart is excised, cannulated, and perfused by the same method outlined above. Both hearts are tested in parallel. The standard physiological salt solution (PSS) is a modified Krebs-Hanseleit bicarbonate buffer of the following composition in mM concentration: NaCl, 127; NaHCO3, 25; dextrose, 5.5; Na Pyruvate, 2.0; KCl, 4.7;MgSO4, 1.1; KH2 PO4, 1.2; CaCl2 ·2H2O, 2.5; CaNa2 EDTA, 0.05.
A 30-minute stabilization period is observed before starting the test protocol.
Microprocessor Controlled Coronary Perfusion and Drug Delivery System
The microprocessor control system is a servo mechanism which permits coronary perfusion pressure (CPP) and drug concentration to be maintained constant independent of changes in coronary flow. The level at which CPP and drug concentration are maintained can be changed by commands communicated through the microprocessor keyboard. Dose-response curves are carried out by perfusing a solution at a specified drug concentration (DC) at rates proportional to total coronary flow (CFT). Drug concentrations are increased by proportionate increases in the rate of DC infusion over CFT via the microprocessor keyboard. The proportional flow rates for DC:CFT is about 0.0002:1 at the low end and 0.02:1 at the high end of the dose-response curve. Dose-response curves encompassing at least two log doses are carried out by preparing two DCs with a concentration difference of 1:100. Following the first dose range of two log doses, the DC is switched, proportional pumping rate adjusted, and the dose-response curve continued for another two log doses. The standard dose-response curve is carried out in one-half log dose increments starting at a subthreshold dose and ending at a dose which produces near maximal response in activity. Standard reference compounds are tested over the range of 10^-9 to 10^-6 M.
Measurements are for coronary flow (CF). Units are: CF, milliliters/minute (ml/min). CF is calculated by recording analog outputs from pumps 1 and 2. Outputs from pump #1=CFT and the output from pump #2=CF for heart B (CFB) CF for heart A (CFA) is calculated (CFT -CFB =CFA).
Using the above coronary blood flow evaluation technique, the effects of the compounds of each indicated example is shown as the EC (effective concentration) 25/(effective concentration) EC 50.

Structure (SMILES) | Blood Pressure, percent increase (+) or decrease (-) from control data [1] | Contractility, percent increase (+) or decrease (-) from control data [1] | Heart Rate, percent increase (+) or decrease (-) from control data [1] | EC25 [2] [µM] | EC50 [2] [µM]
COC(=O)/C=C/c1ccc(OC)c(OC2CCCC2)c1 [Example 3, Methyl 3-(3-cyclopentoxy-4-methoxyphenyl)-E-propenoate] | +16% | +77% | +20% | 2 | > 500
COc1ccc(CCC(N)=O)cc1OC1CCCC1 [Example 16, 3-(3-Cyclopentoxy-4-methoxyphenyl)-n-propionyl amide] | +5% | +127% | +25% | 3 | 10
COc1ccc(/C=C/C=O)cc1OC1CCCC1 [Example 21, 3-(3-Cyclopentoxy-4-methoxyphenyl)-E-propene-1-aldehyde] | -1% | +62% | +35% | 1.1 | 2
COC(=O)CCc1ccc(OC)c(OC2CCCC2)c1 [Example 9, Methyl 3-(3-cyclopentoxy-4-methoxyphenyl)-n-propionate] | +5% | +36% | +41% | 15 | 22
COc1ccc(CCCO)cc1OC1CCCC1 [Example 19, 3-(3-Cyclopentoxy-4-methoxyphenyl)-n-1-propanol] | +9% | +91% | +25% | 2 | 7
COc1ccc(CCC(=O)O)cc1OC1CCCC1 [Example 13, 3-(3-Cyclopentoxy-4-methoxyphenyl)-n-propanoic acid] | +9% | +47% | +23% | 4 | 15
